Tests used:
p. Vinckei = assay: in vivo efficacy in mice infected with p. Vinckei (FIG. 4); conditions: oral, 3 mg/kg body weight
Procedure: Mice: Four to eight-week-old BALB/C male and female mice from a breeding colony were used.
Parasite: Stabilates of p. Vinchei TCC 30091) and p. Falciparum (FCR-3 knobless) were used.
In vivo method: The tail vein was nicked and a blood droplet was smeared.
The smears were stained with Giemsa, infected erythrocytes (which contain trophozoite and schizont stage parasites) were counted and percent parasitemia estimated.
Approximately 10^5 p. Vinchei parasites were injected intraperitoneally (I.P.) into a donor mouse and at the time of ascending parasitemia, the infected mouse was exsanguinated and red blood cells are prepared for in vivo experimentation.
(§1) A control and a drug concentration (approximately 3 mg/kg body weight/day) were provided orally via drinking water. Water containing drugs were prepared daily. Water intake were monitored daily to insure proper dosage and hydration levels. A commercial food pellet were provided ad libitum.
To each mouse, 10^6 parasitized red blood cells were injected I.P., and daily blood samples were collected from the tail vein to monitor the levels of parasitemia.
Five mice were used for each group tested.
During the experimentation, we monitored both the percent parasitemia and percent survival rate of each experimental group.
Using p. Vinckei and a mice model, Ohnishi has also tested the efficacy of W-7.

sickle red cells = conditions: studies on sickle red cells; cited from earlier work
mice [1] = conditions: oral administration; cited from earlier work
beta-adrenergic = conditions: cited from earlier work
mice [2] = assay: side effects in mice at 3 mg/kg/day orally; type: in vivo
Procedure: as §1
Ohnishi tested an in vivo efficacy of these drugs using mice infected by p. Falciparum.

p. Falciparum = assay: in vivo efficacy in mice infected by p. Falciparum (FIG. 3); conditions: 3 mg/kg/day orally
man = conditions: adults; mixture of l-form and d-form; cited from earlier work

Row | SMILES | effect on red cell metabolism and cell sickling (sickle red cells) | acute LD50 (mice [1]) | beta-adrenergic blocker activity of the form (beta-adrenergic) | side effect (mice [2]) | inhibition of the growth of parasites in mice (p. Falciparum) | further results
1 | NCCCCCCNS(=O)(=O)c1cccc2c(Cl)cccc12 [W-7] | altered the red cell metabolism and thus affected the cell sickling | 75 mg/kg | – | – | – | life span after infection (p. Vinckei): extended their life span after infection; suppression of the growth of parasites (p. Vinckei): suppressed the growth of parasites
2 | C=CCc1ccccc1OCC(O)CNC(C)C (stereo not drawn) [alprenolol] | altered the red cell metabolism and thus affected the cell sickling | – | – | – | – | –
3 | CC(C)NC[C@@H](O)COc1cccc2ccccc12 [d-propranolol] | – | – | inactive beta-adrenergic blocker | no side effect was observed | effectively inhibited the growth of parasites in mice | –
4 | C=CCc1ccccc1OC[C@@H](O)CNC(C)C [l-alprenolol] | – | 278 mg/kg | – | – | – | –
5 | CC(C)NC[C@H](O)COc1cccc2ccccc12 [l-propranolol] | – | – | active beta-adrenergic blocker | no side effect was observed | effectively inhibited the growth of parasites in mice | –
6 | CC(C)NCC(O)COc1cccc2ccccc12 (stereo not drawn) [propranolol] | altered the red cell metabolism and thus affected the cell sickling | – | – | – | – | usual effective dose in man as an anti-hypertensive drug (daily) (man): 160-480 mg daily; usual effective dose in man as an anti-hypertensive drug (per body weight) (man): 3-8 mg/kg body weight/day

From US4681899A, “Method of preventing the growth of malaria parasites in erythrocytes” (priority 1985, dated 1987)
